Reference: ChEMBL document CHEMBL5620348, “3-Hydroxy-pyridin-4(1H)-ones as siderophores mediated delivery of isobavachalcone enhances antibacterial activity against pathogenic Pseudomonas aeruginosa” (Eur J Med Chem, 2023)
The source made the active and inactive calls. The rule behind the calls is not given here.

What was measured:
[1] = system: Pseudomonas aeruginosa; assay: Antibacterial activity against Pseudomonas aeruginosa PAO1 assessed as inhibition of bacterial growth incubated for 18 to 20 hrs in presence of MH medium by broth microdilution assay; format: functional, organism-based
[2] = system: Pseudomonas aeruginosa; assay: Antibacterial activity against multi-drug resistant Pseudomonas aeruginosa clinical isolate 1167 assessed as inhibition of bacterial growth by measuring minimum inhibitory concentration incubated for 18 to 20 hrs in presence of M9 medium by broth microdilution assay; format: functional; settings: time 18-20 hrs
[3] = system: Escherichia coli; assay: Antibacterial activity against Escherichia coli ATCC 25922 assessed as inhibition of bacterial growth by measuring minimum inhibitory concentration incubated for 18 to 20 hrs in presence of M9 medium by broth microdilution assay; format: functional; settings: time 18-20 hrs
[4] = system: Pseudomonas aeruginosa; assay: Antibacterial activity against multi-drug resistant Pseudomonas aeruginosa clinical isolate FB assessed as inhibition of bacterial growth by measuring minimum inhibitory concentration incubated for 18 to 20 hrs in presence of M9 medium by broth microdilution assay; format: functional; settings: time 18-20 hrs
[5] = system: Klebsiella pneumoniae; assay: Antibacterial activity against Klebsiella pneumoniae ATCC 700603 assessed as inhibition of bacterial growth by measuring minimum inhibitory concentration incubated for 18 to 20 hrs in presence of M9 medium by broth microdilution assay; format: functional; settings: time 18-20 hrs
[6] = system: Pseudomonas aeruginosa; assay: Antibacterial activity against multi-drug resistant Pseudomonas aeruginosa clinical isolate 1121 assessed as inhibition of bacterial growth by measuring minimum inhibitory concentration incubated for 18 to 20 hrs in presence of M9 medium by broth microdilution assay; format: functional; settings: time 18-20 hrs
[7] = system: Pseudomonas aeruginosa; assay: Antibacterial activity against Pseudomonas aeruginosa PAO1 assessed as inhibition of bacterial growth incubated for 18 to 20 hrs in presence of M9 medium by broth microdilution assay; format: functional, organism-based
[8] = system: Pseudomonas aeruginosa; assay: Antibacterial activity against Pseudomonas aeruginosa PAO1 assessed as inhibition of bacterial growth by measuring minimum inhibitory concentration incubated for 18 to 20 hrs in presence of MH medium by broth microdilution assay; format: functional; settings: time 18-20 hrs
[9] = system: Pseudomonas aeruginosa; assay: Antibacterial activity against Pseudomonas aeruginosa ATCC27853 assessed as inhibition of bacterial growth by measuring minimum inhibitory concentration incubated for 18 to 20 hrs in presence of M9 medium by broth microdilution assay; format: functional; settings: time 18-20 hrs
[10] = system: Pseudomonas aeruginosa; assay: Antibacterial activity against multi-drug resistant Pseudomonas aeruginosa clinical isolate 1129 assessed as inhibition of bacterial growth by measuring minimum inhibitory concentration incubated for 18 to 20 hrs in presence of M9 medium by broth microdilution assay; format: functional; settings: time 18-20 hrs
[11] = system: Pseudomonas aeruginosa; assay: Antibacterial activity against Pseudomonas aeruginosa PAO1 assessed as inhibition of bacterial growth incubated for 18 to 20 hrs in presence of M9 and FeCl3 medium by broth microdilution assay; format: functional, organism-based
[12] = system: Staphylococcus aureus; assay: Antibacterial activity against Staphylococcus aureus ATCC 25923 assessed as inhibition of bacterial growth by measuring minimum inhibitory concentration incubated for 18 to 20 hrs in presence of M9 medium by broth microdilution assay; format: functional; settings: time 18-20 hrs
[13] = system: Pseudomonas aeruginosa; assay: Antibacterial activity against Pseudomonas aeruginosa PAO1 assessed as inhibition of bacterial growth by measuring minimum inhibitory concentration incubated for 18 to 20 hrs in presence of M9 and FeCl3 medium by broth microdilution assay; format: functional; settings: time 18-20 hrs
[14] = system: Pseudomonas aeruginosa; assay: Antibacterial activity against Pseudomonas aeruginosa PAO1 assessed as inhibition of bacterial growth by measuring minimum inhibitory concentration incubated for 18 to 20 hrs in presence of M9 medium by broth microdilution assay; format: functional; settings: time 18-20 hrs
[15] = system: Pseudomonas aeruginosa; assay: Antibacterial activity against Pseudomonas aeruginosa PAO1 assessed as inhibition of bacterial growth at 1 to 4 times MIC incubated upto 24 hrs by time-kill based microplate reader assay; format: functional, organism-based
[16] = system: Pseudomonas aeruginosa; assay: Antibacterial activity against Pseudomonas aeruginosa PAO1 assessed as reduction in metabolic activity incubated for 6 hrs by resazurin reagent based microplate reader analysis; format: functional, organism-based
[17] = system: Pseudomonas aeruginosa; assay: Antibacterial activity against Pseudomonas aeruginosa PAO1 infected in Caenorhabditis elegans assessed as increase in worm survival rate at 2 times MIC incubated for 60 hrs relative to control; format: functional
[18] = system: Pseudomonas aeruginosa; assay: Antibacterial activity against Pseudomonas aeruginosa PAO1 assessed as inhibition of bacterial growth at 2 times MIC incubated upto 24 hrs in presence of Fe(III) by time-kill based microplate reader assay; format: functional, organism-based
[19] = system: Vero; assay: Cytotoxicity against green monkey Vero cells assessed as reduction in cell viability at > 32 ug/ml incubated for 24 hrs by MTT assay; format: toxicity, cell-based; settings: chlorocebus sabaeus, dose > 32 µg/ml
[20] = system: Cell membrane; assay: Disruption of cell membrane integrity in Pseudomonas aeruginosa PAO1 assessed as increase in red fluorescence incubated for 5.5 hrs by propidium iodide staining based confocal laser-scanning microscopic analysis; format: cell membranes
[21] = system: Pseudomonas aeruginosa; assay: Antibacterial activity against Pseudomonas aeruginosa PAO1 infected in Caenorhabditis elegans assessed as increase in worm survival rate at 0.5 times MIC incubated for 60 hrs; format: functional, organism-based
[22] = system: Cell membrane; assay: Disruption of cell membrane integrity in Pseudomonas aeruginosa PAO1 assessed as increase in protein leakage at 0.5 to 4 MIC incubated for 6 hrs by BCA protein assay; format: cell membranes
[23] = system: Vero; assay: Cytotoxicity against green monkey Vero cells assessed as reduction in cell viability at 128 ug/ml incubated for 24 hrs by MTT assay; format: toxicity, cell-based; settings: chlorocebus sabaeus, dose 128 µg/ml
[24] = system: Cell membrane; assay: Disruption of cell membrane integrity in Pseudomonas aeruginosa PAO1 assessed as increase in nucleic acid leakage at 0.5 to 4 MIC incubated for 6 hrs by microplate reader analysis; format: cell membranes
[25] = system: Staphylococcus aureus; assay: Bactericidal activity against Staphylococcus aureus ATCC 25923 assessed as inhibition of bacterial growth at 1 to 2 times MIC incubated upto 24 hrs by time-kill based microplate reader assay; format: functional, organism-based

Compound	IC50 [1]	MIC [2]	MIC [3]	MIC [4]	MIC [5]	MIC [6]	IC50 [7]	MIC [8]	MIC [9]	MIC [10]	IC50 [11]	MIC [12]	MIC [13]	MIC [14]	also measured
CC(C)=CCc1c(O)ccc(C(=O)/C=C/c2ccc(OCCCOCc3c(O)c(=O)cc(C)n3C)cc2)c1O	16.2 µg/mL	8 µg/mL	> 128 µg/mL	16 µg/mL	> 128 µg/mL	16 µg/mL	3.27 µg/mL	32 µg/mL	32 µg/mL	16 µg/mL	> 128 µg/mL	32 µg/mL	> 128 µg/mL	16 µg/mL	–
CC(C)=CCc1c(O)ccc(C(=O)/C=C/c2ccc(OCCCCCC(=O)NCc3cc(=O)c(O)cn3C)cc2)c1O	19.4 µg/mL	32 µg/mL	> 128 µg/mL	16 µg/mL	> 128 µg/mL	16 µg/mL	1.46 µg/mL	32 µg/mL	32 µg/mL	32 µg/mL	> 128 µg/mL	32 µg/mL	> 128 µg/mL	16 µg/mL	–
CC(C)=CCc1c(OCCCCn2cc(COCc3cc(=O)c(O)cn3C)nn2)ccc(C(=O)/C=C/c2ccc(O)cc2)c1O	17.8 µg/mL	16 µg/mL	> 128 µg/mL	16 µg/mL	> 128 µg/mL	8 µg/mL	2.55 µg/mL	32 µg/mL	32 µg/mL	16 µg/mL	> 128 µg/mL	32 µg/mL	> 128 µg/mL	16 µg/mL	–
CC(C)=CCc1c(OCCCCn2cc(COCc3c(O)c(=O)cc(C)n3C)nn2)ccc(C(=O)/C=C/c2ccc(O)cc2)c1O	29.4 µg/mL	32 µg/mL	> 128 µg/mL	16 µg/mL	> 128 µg/mL	8 µg/mL	3.64 µg/mL	64 µg/mL	32 µg/mL	16 µg/mL	> 128 µg/mL	32 µg/mL	> 128 µg/mL	32 µg/mL	–
CC(C)=CCc1c(O)ccc(C(=O)/C=C/c2ccc(OCCCOCc3cc(=O)c(O)cn3C)cc2)c1O	16.8 µg/mL	8 µg/mL	> 128 µg/mL	16 µg/mL	> 128 µg/mL	8 µg/mL	1.45 µg/mL	32 µg/mL	32 µg/mL	8 µg/mL	> 128 µg/mL	32 µg/mL	> 128 µg/mL	16 µg/mL	Activity [15]: Active; Activity [16]: Dose-Dependent Effect; Survival [17]: 55%; Activity [18]: inactive; Activity [19]: Toxic; Activity [20]: Dose-Dependent Effect; Activity [21]: inactive; Activity [22]: Active; Activity [23]: Non-Toxic; Activity [24]: Active; Activity [25]: inactive
